Holding throughout (assay): DTP human tumour cell line panel, 48 h
Test [1] concerns DMS-114.
Test [2] relates to LXFL 529.
The subject of test [3] is DLD-1.
Test [4] has as its system SNB-78.
Test [5] deals with M19-MEL.
For test [6], the system named is DMS-273.
For test [7], the system named is KM-20L2.
The test system of test [8] is XF498.
Test [9] has as its system RXF 631.

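Where inhibition never reached the appropriate level, the endpoint shown equals the highest concentration tested. Otherwise, values were interpolated linearly from a five-concentration, 48-hour dose response in 96-well plates. The concentration for 50% growth inhibition is given as GI50.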 Active and inactive are the calls of the source. Rule as the data show it: active = GI50 up to about 1.1 µM and inactive = higher.

Usually GI50 stands for the concentration giving 50% growth inhibition. For the compound `COc1ccc(-c2cc(O)c3cc4c(cc3n2)OCO4)cc1OC`, the GI50 in test [1], in test [2], in test [3], in test [4], in test [5] and in test [6] was > 100 µM (inactive) throughout. Besides, the GI50 in test [7] and in [8] was > 100 µM (inactive) each time.

Regarding `COc1ccc(/C=C\c2cc(OC)c(OC)c(OC)c2)cc1OC(=O)CC(N)C(=O)O` (configuration not stated), the 50% growth inhibitory concentration (GI50) in [1] is 0.00122 µM (active); in test [2], 0.00191 µM (active); in [3], 0.0041 µM (active); in test [4], 0.00208 µM (active); in test [5] it was 0.00135 µM (active); in test [6], 0.00195 µM (active). Moreover, the GI50 in test [7] was 3.7 µM (inactive); in test [8] it was 0.00239 µM (active).

As for `CC(=O)Nc1ccc(/C=C(\NC(=O)c2ccccc2)c2nc3ccc4c(c3[nH]2)C(=O)c2ccccc2C4=O)cc1`, the GI50 in test [1] is 17.9 µM (inactive); in test [2] it was 28.8 µM (inactive); in test [3], 13.8 µM (inactive); in test [4], 58.9 µM (inactive); in test [5] it was 78.3 µM (inactive); in [6], 32.7 µM (inactive). Also, the GI50 in test [7] is 46.5 µM (inactive); in test [8] it was 84.1 µM (inactive).

For `O=[N+]([O-])c1ccc(-c2cnc3ccccn23)cc1`, the GI50 in test [1] was 48.6 µM (inactive); in [2] it was > 100 µM (inactive); in test [4] it was > 100 µM (inactive); in test [5], > 100 µM (inactive); in [6], > 100 µM (inactive); in test [7], > 100 µM (inactive). For the same compound, in test [8], the GI50 is > 100 µM (inactive).

Take `CCCCCCCCCCCCCCC1OC(=O)c2ccccc21` (configuration not stated): the GI50 in test [1] is 24 µM (inactive); in test [9] it was > 100 µM (inactive); in test [2], 77.1 µM (inactive); in test [3], 71.4 µM (inactive); in test [4], > 100 µM (inactive); in test [5], 85.7 µM (inactive). For the same compound, the GI50 in test [7] was 42.9 µM (inactive).

In the case of `O=C(O/N=C1/CCC/C1=C\c1ccccc1)c1ccc([N+](=O)[O-])cc1`, the GI50 is > 100 µM (inactive) in [1]; > 100 µM (inactive) in test [9]; > 100 µM (inactive) in test [2]; > 100 µM (inactive) in [3]; > 100 µM (inactive) in test [4]; 15.5 µM (inactive) in test [5]. The GI50 in test [6] and in test [7] was > 100 µM (inactive) each time.

Regarding `COc1ccc2c(c1)C(=O)Cc1ccccc1CC2`, the GI50 in test [1], in test [2], in [3], in [4], in test [5] and in test [6] was > 100 µM (inactive) each time. In addition, the GI50 in test [7] and in test [8] was > 100 µM (inactive) in each case.

In the case of `N#Cc1c(-c2ccccc2)cc(-c2cccs2)c(C#N)c1N`, the GI50 in test [1] was > 10 µM (inactive); in test [2], > 100 µM (inactive); in test [3], > 100 µM (inactive); in test [4] it was > 100 µM (inactive); in test [5] it was > 10 µM (inactive); in test [6], > 100 µM (inactive). For the same compound, the GI50 in test [7] and in test [8] was > 100 µM (inactive) throughout.

As to `CC(CNCCCNCCNCCCNCO)[N+](=O)[O-]` (configuration not stated), the GI50 is 16.6 µM (inactive) in test [1]; 16 µM (inactive) in test [9]; 3.99 µM (inactive) in test [2]; 3.63 µM (inactive) in test [3]; 20.6 µM (inactive) in [4]; 16.5 µM (inactive) in [6]. Besides, the values for the GI50 in [7] and in [8] were 16.9 µM (inactive) and 16.1 µM (inactive), respectively.

As for `O=C1CC2C=CC1C2CO` (configuration not stated), the GI50 in test [1], in [2], in test [3], in test [4], in [5] and in [6] was > 100 µM (inactive) throughout. Also, the GI50 in test [7] was > 100 µM (inactive).

With `Cn1nc(-c2ccccc2NC(=O)C(F)(F)F)c(=O)n(C)c1=S`, the GI50 in [1] was 14 µM (inactive); in test [2], 21.7 µM (inactive); in test [3] it was > 100 µM (inactive); in test [5], 18.9 µM (inactive); in [6], 24.4 µM (inactive); in [8], 18.9 µM (inactive).

Take `COC(=O)CCC(=O)N1C/C(=C\c2ccccc2)C(=O)/C(=C/c2ccccc2)C1`: the GI50 in test [1] is 1.73 µM (inactive); in [2], 2.09 µM (inactive); in test [3] it was 2.04 µM (inactive); in [4], 2.77 µM (inactive); in test [5], 2.39 µM (inactive); in test [6], 0.708 µM (active). The GI50 was 2.24 µM (inactive) in test [7] and 5.87 µM (inactive) in [8].

With `Cc1cc2c(cc1C)[n+]([O-])c(C(=O)/C=C/c1ccccc1[N+](=O)[O-])c(C)[n+]2[O-]`, the GI50 in [1] is 17.8 µM (inactive); in [2], > 91.6 µM (inactive); in test [3], 77.6 µM (inactive); in test [4], 27 µM (inactive); in test [5], > 80 µM (inactive); in test [6], 34.1 µM (inactive). Besides, the GI50 is > 100 µM (inactive) in [7] and 22.3 µM (inactive) in test [8].

With `COc1ccc(NC(=O)CSc2nnc(-c3ccc(NC(C)=O)cc3)o2)cc1`, the GI50 in test [1] is 5.6 µM (inactive); in test [2] it was 13.6 µM (inactive); in test [3], 19.3 µM (inactive); in test [4] it was 13.8 µM (inactive); in test [5] it was 21 µM (inactive); in [6] it was 19.3 µM (inactive). In addition, the GI50 in test [7] was 19.5 µM (inactive).

As to `CN1C2(c3ccccc3)C(C(=O)c3ccccc3)=C(C(=O)c3ccccc3)C1(c1ccccc1)c1c(-c3ccccc3)sc(-c3ccccc3)c12`, the GI50 in test [1], in test [2], in [3], in [4], in test [5] and in test [6] was > 100 µM (inactive) in each case. In addition, the GI50 in test [7] is > 100 µM (inactive).

`CC(=O)OCCOCNC(=S)N/N=C(\C)c1cccs1`: the GI50 in test [1], in test [2], in [3], in [4], in [5] and in [6] was > 100 µM (inactive) each time. The GI50 in test [7] and in test [8] was > 100 µM (inactive) each time.

Turning to `CC(=O)NC(CCCCNC(=O)N(CCCl)N=O)C(=O)NCc1ccccc1` (configuration not stated), the GI50 in test [1], in test [9], in test [2], in test [3], in test [5] and in [6] was > 100 µM (inactive) throughout. The GI50 in [7] and in [8] was > 100 µM (inactive) throughout.

As to `CC(=O)CN(Cc1cc(C)c2c(c1)c1ccccc1n2Cc1ccccc1)S(=O)(=O)c1ccc(C)cc1`, the GI50 in test [1], in test [9], in [2], in test [3], in [4] and in test [5] was > 100 µM (inactive) each time. The GI50 in test [6] and in test [8] was > 100 µM (inactive) in each case.

In the case of `COc1cc2cccc(NC(=O)c3cc(OC)c(OC)c(OC)c3Br)c2cc1OC`, the GI50 in test [1] is 3.12 µM (inactive); in [2] it was 2.52 µM (inactive); in test [3], 24.8 µM (inactive); in test [4] it was 17.1 µM (inactive); in [5], 10.2 µM (inactive); in [7], 25.7 µM (inactive). Besides, the GI50 in test [8] is 2.4 µM (inactive).

On to `O=C(CNC(=O)OCc1ccccc1)Oc1ccccc1`, for which the GI50 in test [1], in test [2], in test [3], in [4], in test [5] and in test [6] was > 100 µM (inactive) throughout. Moreover, the GI50 in test [7] and in [8] was > 100 µM (inactive) in each case.

Take `COc1cccc(/C=N/NC(N)=O)c1O`: the GI50 in [7] is > 100 µM (inactive).

Turning to `COc1cc2c(cc1O)[C@H](C)C(c1ccc(OC)c(OC)c1)O2` (some centres not stated), the GI50 in test [1] was 3.56 µM (inactive); in test [2], 9.35 µM (inactive); in test [3], 8.11 µM (inactive); in test [4], 17.3 µM (inactive); in test [5], 4.18 µM (inactive); in [6], 3.84 µM (inactive). In addition, the GI50 in test [7] was 18.8 µM (inactive); in test [8], 10.1 µM (inactive).

With `COc1ccccc1CCc1cc(OC)c(OC)c(OC)c1`, the GI50 in test [1] is 41.6 µM (inactive); in test [2] it was 28.4 µM (inactive); in test [3], 61.5 µM (inactive); in test [4] it was 43 µM (inactive); in test [5], 48.3 µM (inactive); in [6] it was 39.6 µM (inactive). For the same compound, the figures for the GI50 in [7] and in [8] were 55.8 µM (inactive) and 35.9 µM (inactive), respectively.

In the case of `COc1ccc(Cl)cc1NC(=O)c1cccc([N+](=O)[O-])c1O`, the GI50 in [2] is 8.43 µM (inactive); in test [3] it was 8.95 µM (inactive); in test [4], 19.4 µM (inactive); in [5] it was 9.79 µM (inactive); in test [7], 15 µM (inactive).

Take `COC(=O)/C(=C/c1ccc(OC)cc1)c1cc(OC)c(OC)c(OC)c1`: the GI50 in test [1] is 2.96 µM (inactive); in [2], 3.73 µM (inactive); in test [3], 2.61 µM (inactive); in test [4], 5.02 µM (inactive); in [5] it was 3.46 µM (inactive); in test [6], 0.746 µM (active). The values for the GI50 in test [7] and in [8] were 1.12 µM (inactive) and 4.89 µM (inactive), respectively.

The record behind these values is ChEMBL document CHEMBL1201862, “PubChem BioAssay data set” (2004).
